Test results taken from US9949479B2 (priority 2015, dated 2018).
In brackets after ≈: the same amount, converted by molar mass. Several values for one entry are separate records, joined by “and”; a condition that tells them apart may be missing. Equal entries are not always repeated. Where two headings read alike, the source gives them in different places.

Experiments:
wheat scab [1] = assay type: in vivo, Fusarium spp.; details: Serial 6: preparation 100; jinggangmycin 0, metconazole 20 g ai./mu
powdery mildew [2] = assay type: in vivo; details: dose as in E145
[3] = assay type: in vivo, wheat; details: dose as in E162
[4] = set-up: species or system wheat; details: in vivo
rust [5] = assay type: in vivo
powdery mildew [6] = assay type: in vivo; details: dose as in E154
leaf blight [7] = assay type: in vivo
powdery mildew [8] = assay type: in vivo
powdery mildew [9] = assay type: in vivo; details: Serial 6: preparation 100; jinggangmycin 0, metconazole 20 g ai./mu
leaf blight [10] = assay type: in vivo; remark: listed apart in the source
powdery mildew [11] = assay type: in vivo; remark: listed apart in the source
leaf blight [12] = assay type: in vivo; remark: listed apart in the source
leaf rust fungus = assay type: in vivo; details: seed treatment; dose as in E133
[13] = assay type: in vivo, wheat
powdery mildew fungus = assay type: in vivo; details: seed treatment; dose as in E133
Fusarium graminearum = assay: microbe, parasite or virus in culture; assay type: cell-based
powdery mildew [14] = assay type: in vivo; remark: listed apart in the source
Fusarium asiaticum = assay: microbe, parasite or virus in culture; assay type: cell-based
[15] = set-up: species or system wheat; details: in vivo; remark: listed apart in the source
wheat scab [16] = assay type: in vivo, Fusarium spp.
[17] = system: DON toxin biosynthesis of carbendazim-resistant fusarium asiaticum; assay: microbe, parasite or virus in culture; assay type: cell-based
rust [18] = assay type: in vivo; details: Serial 6: preparation 100; jinggangmycin 0, metconazole 20 g ai./mu
leaf blight [19] = assay type: in vivo; details: dose as in E154
wheat scab [20] = assay type: in vivo, Fusarium spp.; remark: listed apart in the source
rust [21] = assay type: in vivo; remark: listed apart in the source
wheat scab [22] = assay type: in vivo, Fusarium spp.; remark: listed apart in the source
rust [23] = assay type: in vivo; details: dose as in E145
rust [24] = assay type: in vivo; remark: listed apart in the source
[25] = Serial 9: preparation 100 g/mu, metconazole 20 g ai./mu alone
[26] = Serial 10: preparation 80 g/mu, metconazole 16 g ai./mu alone
[27] = Serial 11: preparation 40 g/mu, metconazole 8 g ai./mu alone
[28] = Serial 12: preparation 20 g/mu, metconazole 4 g ai./mu alone
[29] = Serial 21: metconazole 20 g ai./mu alone
[30] = Serial 22: metconazole 18 g ai./mu alone
[31] = Serial 23: metconazole 16 g ai./mu alone
[32] = Serial 24: metconazole 10 g ai./mu alone
[33] = Serial 25: metconazole 9 g ai./mu alone
[34] = Serial 26: metconazole 8 g ai./mu alone
[35] = Serial 27: metconazole 6 g ai./mu alone
[36] = Serial 28: metconazole 3 g ai./mu alone
[37] = Serial 10: preparation 30 g/mu, metconazole 6 g ai./mu alone
[38] = Serial 11: preparation 22.5 g/mu, metconazole 4.5 g ai./mu alone
[39] = Serial 12: preparation 15 g/mu, metconazole 3 g ai./mu alone
[40] = Serial 8: preparation 50 g/mu, metconazole 10 g ai./mu alone
[41] = Serial 9: preparation 37.5 g/mu, metconazole 7.5 g ai./mu alone
[42] = Serial 10: preparation 15 g/mu, metconazole 3 g ai./mu alone
[43] = Fusarium graminearum, read-out: Growth Inhibition Rate F.g
[44] = Fusarium asiaticum, read-out: Growth Inhibition Rate F.a

CC1(C)CCC(Cc2ccc(Cl)cc2)C1(O)Cn1cncn1 (stereo not shown) [Metconazole]
Disease Index Prevention Effect % Head Blight (wheat scab [1]): 82.4%
Disease Index Prevention Effect % Powdery Mildew (powdery mildew [2]): 78.7% and 74.3% and 70.2% and 48.6%
Grain Toxin Content [3]: 2.01 μg/g of kernels and 2.24 μg/g of kernels and 2.38 μg/g of kernels and 2.94 μg/g of kernels
Thousand Kernel Weight [4]: 43.4 g and 42.8 g and 42.4 g and 40.4 g
Disease Index Prevention Effect % Rust (rust [5]; [25]): 84.4%
Disease Index Prevention Effect % Rust (rust [5]; [26]): 77.3%
Disease Index Prevention Effect % Rust (rust [5]; [27]): 70.6%
Disease Index Prevention Effect % Rust (rust [5]; [28]): 63.8%
Disease Index Prevention Effect % Powdery Mildew (powdery mildew [6]): 52.6% and 65.3% and 71.8% and 82.2%
Disease Index Prevention Effect % Leaf Blight (leaf blight [7]; [29]): 80.5%
Disease Index Prevention Effect % Leaf Blight (leaf blight [7]; [30]): 80.2%
Disease Index Prevention Effect % Leaf Blight (leaf blight [7]; [31]): 79.6%
Disease Index Prevention Effect % Leaf Blight (leaf blight [7]; [32]): 75.3%
Disease Index Prevention Effect % Leaf Blight (leaf blight [7]; [33]): 75.0%
Disease Index Prevention Effect % Leaf Blight (leaf blight [7]; [34]): 74.3%
Disease Index Prevention Effect % Leaf Blight (leaf blight [7]; [35]): 70.2%
Disease Index Prevention Effect % Leaf Blight (leaf blight [7]; [36]): 28.1%
Disease Index Prevention Effect % Powdery Mildew (powdery mildew [8]; [37]): 60.6%
Disease Index Prevention Effect % Powdery Mildew (powdery mildew [8]; [38]): 58.6%
Disease Index Prevention Effect % Powdery Mildew (powdery mildew [8]; [39]): 45.1%
Disease Index Prevention Effect % Powdery Mildew (powdery mildew [9]): 78.2%
Disease Index Prevention Effect % Leaf Blight (leaf blight [10]; [25]): 72.8%
Disease Index Prevention Effect % Leaf Blight (leaf blight [10]; [26]): 70.6%
Disease Index Prevention Effect % Leaf Blight (leaf blight [10]; [27]): 68.3%
Disease Index Prevention Effect % Leaf Blight (leaf blight [10]; [28]): 50.8%
Disease Index Prevention Effect % Powdery Mildew (powdery mildew [11]; [29]): 80.1%
Disease Index Prevention Effect % Powdery Mildew (powdery mildew [11]; [30]): 74.6%
Disease Index Prevention Effect % Powdery Mildew (powdery mildew [11]; [31]): 71.4%
Disease Index Prevention Effect % Powdery Mildew (powdery mildew [11]; [32]): 63.4%
Disease Index Prevention Effect % Powdery Mildew (powdery mildew [11]; [33]): 60.8%
Disease Index Prevention Effect % Powdery Mildew (powdery mildew [11]; [34]): 58.6%
Disease Index Prevention Effect % Powdery Mildew (powdery mildew [11]; [35]): 51.8%
Disease Index Prevention Effect % Powdery Mildew (powdery mildew [11]; [36]): 26.4%
Disease Index Prevention Effect % Leaf Blight (leaf blight [12]; [40]): 72.8%
Disease Index Prevention Effect % Leaf Blight (leaf blight [12]; [41]): 70.6%
Disease Index Prevention Effect % Leaf Blight (leaf blight [12]; [42]): 68.3%
Incidence Prevention Effect % Rust (leaf rust fungus): 85.5% and 82.0% and 71.0% and 54.5%
Grain Toxin Content (mg of DON/Kg of grain) [13, 29]: 1.11 mg of DON/Kg of grain
Rate of Decrease in Toxin Content in Grains (%) [13, 29]: 82.8%
Grain Toxin Content (mg of DON/Kg of grain) [13, 30]: 0.99 mg of DON/Kg of grain
Rate of Decrease in Toxin Content in Grains (%) [13, 30]: 84.7%
Grain Toxin Content (mg of DON/Kg of grain) [13, 31]: 1.08 mg of DON/Kg of grain
Rate of Decrease in Toxin Content in Grains (%) [13, 31]: 83.3%
Grain Toxin Content (mg of DON/Kg of grain) [13, 32]: 1.34 mg of DON/Kg of grain
Rate of Decrease in Toxin Content in Grains (%) [13, 32]: 79.3%
Grain Toxin Content (mg of DON/Kg of grain) [13, 33]: 1.56 mg of DON/Kg of grain
Rate of Decrease in Toxin Content in Grains (%) [13, 33]: 75.9%
Grain Toxin Content (mg of DON/Kg of grain) [13, 34]: 1.61 mg of DON/Kg of grain
Rate of Decrease in Toxin Content in Grains (%) [13, 34]: 75.1%
Grain Toxin Content (mg of DON/Kg of grain) [13, 35]: 1.89 mg of DON/Kg of grain
Rate of Decrease in Toxin Content in Grains (%) [13, 35]: 70.7%
Grain Toxin Content (mg of DON/Kg of grain) [13, 36]: 3.22 mg of DON/Kg of grain
Rate of Decrease in Toxin Content in Grains (%) [13, 36]: 50.2%
Incidence Prevention Effect % Powdery Mildew (powdery mildew fungus): 75.0% and 68.5% and 61.0% and 40.0%
ED50 (Fusarium graminearum; F.g sensitive strains): 0.117 µg/mL (≈ 0.366 µM)
inhibition at 0.0625 µg/mL (Fusarium graminearum; [43]): 30.7%
inhibition at 0.125 µg/mL (Fusarium graminearum; [43]): 58.5%
inhibition at 0.25 µg/mL (Fusarium graminearum; [43]): 75.7%
inhibition at 0.5 µg/mL (Fusarium graminearum; [43]): 89.1%
inhibition at 1 µg/mL (Fusarium graminearum; [43]): 96%
inhibition at 0.1 µg/mL (Fusarium graminearum; Fusarium graminearum, read-out: inhibition rate on the hyphal growth of the head blight fungi): ~50%
Average Fungal Colony Diameter F.g (Fusarium graminearum; Metconazole 0.0625 μg/mL, sensitive strains): 52.1 mm
Average Fungal Colony Diameter F.g (Fusarium graminearum; Metconazole 0.125 μg/mL, sensitive strains): 31.2 mm
Average Fungal Colony Diameter F.g (Fusarium graminearum; Metconazole 0.25 μg/mL, sensitive strains): 18.3 mm
Average Fungal Colony Diameter F.g (Fusarium graminearum; Metconazole 0.5 μg/mL, sensitive strains): 8.2 mm
Average Fungal Colony Diameter F.g (Fusarium graminearum; Metconazole 1.0 μg/mL, sensitive strains): 3.0 mm
activity of metconazole relative to carbendazim (ED50) (Fusarium graminearum; sensitive strains): about four times
activity of metconazole relative to phenamacril (ED50) (Fusarium graminearum; sensitive strains): about 1.5 times
Disease Index Prevention Effect % Powdery Mildew (powdery mildew [14]; [40]): 83.2%
Disease Index Prevention Effect % Powdery Mildew (powdery mildew [14]; [42]): 69.2%
ED50 (Fusarium asiaticum): 0.114 µg/mL and 0.112 µg/mL and 0.116 µg/mL
inhibition at 0.0625 µg/mL (Fusarium asiaticum; [44]): 30.7%
inhibition at 0.125 µg/mL (Fusarium asiaticum; [44]): 58.6%
inhibition at 0.25 µg/mL (Fusarium asiaticum; [44]): 75.6%
inhibition at 0.5 µg/mL (Fusarium asiaticum; [44]): 89.2%
inhibition at 1 µg/mL (Fusarium asiaticum; [44]): 95.9%
Thousand Kernel Weight [15]: 42.8 g and 41.8 g and 42.0 g and 39.2 g
Disease Index Prevention Effect % Head Blight (wheat scab [16]; [29]): 75.1%
Disease Index Prevention Effect % Head Blight (wheat scab [16]; [30]): 74.9%
Disease Index Prevention Effect % Head Blight (wheat scab [16]; [31]): 73.2%
Disease Index Prevention Effect % Head Blight (wheat scab [16]; [32]): 70.1%
Disease Index Prevention Effect % Head Blight (wheat scab [16]; [33]): 67.2%
Disease Index Prevention Effect % Head Blight (wheat scab [16]; [34]): 65.1%
Disease Index Prevention Effect % Head Blight (wheat scab [16]; [35]): 54.8%
Disease Index Prevention Effect % Head Blight (wheat scab [16]; [36]): 28.3%
DON Biosynthesis Inhibition Rate [17]: 0.66% and −0.34%
Toxin Production Capability [17]: 87.42 μgDON/g by dry weight of hyphae and 52.50 μgDON/g by dry weight of hyphae
Disease Index Prevention Effect % Rust (rust [18]): 85.0%
Disease Index Prevention Effect % Leaf Blight (leaf blight [19]): 56.2% and 70.4% and 73.7% and 80.0%
Disease Index Prevention Effect % Head Blight (wheat scab [20]; [37]): 52.3%
Disease Index Prevention Effect % Head Blight (wheat scab [20]; [38]): 49.6%
Disease Index Prevention Effect % Head Blight (wheat scab [20]; [39]): 28.6%
Disease Index Prevention Effect % Rust (rust [21]; [29]): 91.2%
Disease Index Prevention Effect % Rust (rust [21]; [30]): 88.4%
Disease Index Prevention Effect % Rust (rust [21]; [31]): 85.6%
Disease Index Prevention Effect % Rust (rust [21]; [32]): 82.1%
Disease Index Prevention Effect % Rust (rust [21]; [33]): 82.4%
Disease Index Prevention Effect % Rust (rust [21]; [34]): 79.4%
Disease Index Prevention Effect % Rust (rust [21]; [35]): 72.6%
Disease Index Prevention Effect % Rust (rust [21]; [36]): 30.2%
Disease Index Prevention Effect % Head Blight (wheat scab [22]; [40]): 75.6%
Disease Index Prevention Effect % Head Blight (wheat scab [22]; [42]): 39.1%
Disease Index Prevention Effect % Rust (rust [23]): 83.8% and 78.4% and 66.7% and 41.9%
Disease Index Prevention Effect % Rust (rust [24]; [40]): 84.4%
Disease Index Prevention Effect % Rust (rust [24]; [41]): 77.3%
Disease Index Prevention Effect % Rust (rust [24]; [42]): 70.6%
